TGI data for 11 compounds are collected here from PubChem BioAssay (NCI).

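How tested: cells in 96-well plates exposed to compound for 48 hours at five concentrations. TGI: concentration producing complete growth inhibition.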

Test systems include SK-MEL-5 melanoma; HS 578T breast; ACHN renal; 786-0 renal; SW-620 colon; SK-OV-3 ovarian; SNB-75 CNS; SF-539 CNS; PC-3 prostate; CCRF-CEM leukemia; DU-145 prostate; SK-MEL-2 melanoma; HCT-15 colon.
Assay in all cases: NCI-60 cell line screen, 48 h

For `Cc1cccc(N(CCC#N)S(=O)(=O)c2ccccc2)c1`, the TGI in the experiment on SK-MEL-5 melanoma, with HS 578T breast, in the experiment on ACHN renal, in the experiment on 786-0 renal, with SW-620 colon and with SK-OV-3 ovarian was above 100 µM in each case. The TGI in the experiment with SNB-75 CNS, in the experiment on SF-539 CNS, in the experiment with PC-3 prostate, in the experiment on CCRF-CEM leukemia, in the experiment with DU-145 prostate and with SK-MEL-2 melanoma was above 100 µM throughout.
For `CN(C)c1ccc(/C(Br)=C2\OC(=O)c3ccccc32)cc1`, the TGI in the experiment on SK-MEL-5 melanoma, with HS 578T breast, in the experiment on ACHN renal, with HCT-15 colon, in the experiment with 786-0 renal and in the experiment with SW-620 colon was above 100 µM in each case. The TGI with SK-OV-3 ovarian, in the experiment with SNB-75 CNS, in the experiment with SF-539 CNS, in the experiment on PC-3 prostate, in the experiment with CCRF-CEM leukemia and in the experiment with DU-145 prostate was above 100 µM throughout. The TGI with SK-MEL-2 melanoma was above 100 µM.
For `O=C1C(C=NCCc2c[nH]c3ccccc23)C(C(F)(F)F)=NN1c1nc2ccccc2s1` (stereo unspecified), the TGI with SK-MEL-5 melanoma is 37.1 µM; in the experiment with HS 578T breast, above 100 µM; in the experiment with ACHN renal, 83.5 µM; in the experiment on HCT-15 colon, above 100 µM; in the experiment on 786-0 renal, above 100 µM; with SW-620 colon it was above 100 µM. The TGI with SK-OV-3 ovarian is 76.2 µM; in the experiment on SNB-75 CNS, above 100 µM; in the experiment on SF-539 CNS, 86.4 µM; in the experiment on PC-3 prostate it was 97.8 µM; with CCRF-CEM leukemia, 57.8 µM; in the experiment with DU-145 prostate it was 79.5 µM. The TGI in the experiment on SK-MEL-2 melanoma turned out to be 77.7 µM.
On to `CC1=CC=CC(C)(C)CC1(O[Si](C)(C)C)C(F)(F)F` (stereo unspecified), for which the TGI in the experiment on SK-MEL-5 melanoma, in the experiment on HS 578T breast, with ACHN renal, with HCT-15 colon, in the experiment with 786-0 renal and in the experiment with SW-620 colon was above 100 µM throughout. In addition, the TGI in the experiment with SK-OV-3 ovarian, in the experiment on SNB-75 CNS, in the experiment with SF-539 CNS, in the experiment with PC-3 prostate, with CCRF-CEM leukemia and with DU-145 prostate was above 100 µM in each case. The TGI with SK-MEL-2 melanoma is above 100 µM.
Turning to `CC(C)/C(Cl)=N\OC(=O)NNc1ccccc1`, the TGI was above 54 µM with SK-MEL-5 melanoma; above 100 µM in the experiment with HS 578T breast; 34.1 µM in the experiment with ACHN renal; above 53.7 µM with HCT-15 colon; above 100 µM with 786-0 renal; above 44.1 µM in the experiment on SW-620 colon. Moreover, the TGI with SK-OV-3 ovarian is above 100 µM; with SNB-75 CNS it was above 100 µM; with SF-539 CNS, above 100 µM; in the experiment with PC-3 prostate it was above 100 µM; with CCRF-CEM leukemia, above 46.7 µM; in the experiment on DU-145 prostate it was above 100 µM. In addition, the TGI in the experiment with SK-MEL-2 melanoma was above 100 µM.
On to `Cc1ccc(C2=Nc3c(c(C)nn3-c3ccccc3)N=C(C(=O)O)C2)cc1`, for which the TGI in the experiment with SK-MEL-5 melanoma, in the experiment with HS 578T breast, with ACHN renal, with HCT-15 colon, with 786-0 renal and in the experiment with SW-620 colon was above 10 µM throughout. For the same compound, the TGI in the experiment with SK-OV-3 ovarian, in the experiment with SNB-75 CNS, with SF-539 CNS, in the experiment with PC-3 prostate, with CCRF-CEM leukemia and in the experiment with DU-145 prostate was above 10 µM in each case. In the experiment on SK-MEL-2 melanoma, the TGI is above 10 µM.
For the compound `CCOC(=O)C(=O)N1C(C)=C(C(=O)OCC)CC(C(=O)OCC)=C1C`, the TGI in the experiment on SK-MEL-5 melanoma, in the experiment on HS 578T breast, in the experiment on ACHN renal, with HCT-15 colon, in the experiment on 786-0 renal and in the experiment with SW-620 colon was above 100 µM throughout. For the same compound, the TGI in the experiment on SK-OV-3 ovarian, in the experiment with SNB-75 CNS, with SF-539 CNS, with PC-3 prostate, in the experiment on CCRF-CEM leukemia and in the experiment with DU-145 prostate was above 100 µM throughout. In addition, the TGI with SK-MEL-2 melanoma was above 100 µM.
With `Cc1nc(Cl)c(CBr)c(Cl)n1`, the TGI worked out at 2.88 µM in the experiment on SK-MEL-5 melanoma; 5.94 µM with HS 578T breast; 3.15 µM with ACHN renal; 4.37 µM with HCT-15 colon; 1 µM with 786-0 renal; 12.7 µM with SK-OV-3 ovarian. For the same compound, the TGI came out at 2.26 µM with SNB-75 CNS; 3.72 µM with SF-539 CNS; 3.13 µM in the experiment with PC-3 prostate; 0.772 µM in the experiment with CCRF-CEM leukemia; 8.33 µM in the experiment on DU-145 prostate; 4.68 µM with SK-MEL-2 melanoma.
With `CCOC(=O)c1c(SCCN2CCCC2)n(-c2ccccc2)c(=S)n(-c2ccccc2)c1=O`, the TGI with SK-MEL-5 melanoma was 10 µM; in the experiment with HS 578T breast, above 100 µM; with ACHN renal, 3.17 µM; with HCT-15 colon, 5.54 µM; with 786-0 renal, 2.89 µM; in the experiment with SW-620 colon, 7.58 µM. Besides, the TGI in the experiment with SK-OV-3 ovarian came out at 34.5 µM; in the experiment on SNB-75 CNS it was 19.5 µM; with SF-539 CNS, 4.86 µM; in the experiment on PC-3 prostate it was 3.14 µM; with CCRF-CEM leukemia, 4.14 µM; with DU-145 prostate, 3.11 µM. In addition, in the experiment with SK-MEL-2 melanoma, the TGI was found to be 28.4 µM.
Regarding `O=C(/C=C/c1cccs1)c1ccc(Cl)cc1`, the TGI was above 100 µM in the experiment with SK-MEL-5 melanoma; above 100 µM in the experiment on HS 578T breast; above 100 µM in the experiment on ACHN renal; above 100 µM in the experiment with HCT-15 colon; above 100 µM with 786-0 renal; 92.9 µM with SW-620 colon. Moreover, the TGI in the experiment with SK-OV-3 ovarian is above 100 µM; in the experiment on SNB-75 CNS, above 100 µM; with SF-539 CNS, above 100 µM; in the experiment on PC-3 prostate it was above 100 µM; in the experiment on CCRF-CEM leukemia it was 68 µM; with DU-145 prostate, above 100 µM. Moreover, the TGI in the experiment with SK-MEL-2 melanoma was above 100 µM.
With `Cc1cc(C)c2c(n1)S(=O)(=O)N(CCCN1CCN(c3cccc(C(F)(F)F)c3)CC1)/C(=C(\O)c1ccc(Cl)cc1)C2=O`, the TGI with SK-MEL-5 melanoma was determined as 6.22 µM; in the experiment on HS 578T breast, 56.8 µM; with ACHN renal, 13.8 µM; in the experiment on HCT-15 colon it was 13.9 µM; in the experiment with 786-0 renal it was 15.4 µM; in the experiment with SW-620 colon, 39 µM. The TGI is 20.3 µM in the experiment on SK-OV-3 ovarian; 8.04 µM in the experiment on SNB-75 CNS; 17.1 µM in the experiment on SF-539 CNS; 13.6 µM in the experiment with PC-3 prostate; above 100 µM in the experiment on CCRF-CEM leukemia; 19.9 µM in the experiment on DU-145 prostate. Besides, in the experiment on SK-MEL-2 melanoma, the TGI is 16.8 µM.
